Experiments:
Fos protein expression = assay: Brain gene expression measured by Fos protein expression; type: in vivo, rat
[1] = system: rats (fear-potentiated startle); assay: Fear-potentiated startle paradigm in rats; type: in vivo, rat
Description: The conditioned stimulus (CS) was a 3.7 second light (80 lux) produced by an 8 W fluorescent bulb (100 msecond rise time) located 10 cm behind each cage. Luminosity was measured using a VWR light meter (Atlanta, Ga.). The US was a 0.5 second shock, delivered to the floorbars and produced by a shock generator (SGS-004; LeHigh Valley, Beltsville, Md.). Shock intensities (measured as in Cassella et al., Physiol Behav 36:1187-91, 1986) were 0.4 mA. The presentation and sequencing of all stimuli were under the control of the Macintosh G3 computer using custom-designed software (The Experimenter; Glassbeads Inc., Newton, Conn.).
The experiment was run in four replications.
Fear conditioning. On each of the next 2 days, rats were returned to the test chambers and 5 minutes later given the first of 10 light-footshock pairings. The 0.4 mA 0.5 second shock was delivered during the last 0.5 second of the 3.7 second light. The average intertrial interval (ITI) was 4 minutes (range, 3-5 minutes).

[2] = system: rats (spatial learning and memory)
Description: The M swim maze was developed to test spatial learning and memory (e.g., functional memory). The animal has no visual or spatial cues in the pool and must rely on extra-maze cues (e.g., light setup outside the pool that can be seen by the swimming animal). Through a series of trials a rat develops “place learning” or knowledge about the position of the escape platform based upon the extra-maze cues. The platform can be moved to a different arm of the M configuration each day, combining spatial memory with working memory. This paradigm involves extinction of the prior memory and resolution of a new spatial problem.
Test Animals. A total of 40 male rats were used.
Behavioral Procedures and Data Analysis. Rats (10/group) were treated by tail vein injection with vehicle, 0.4 μg/kg/day, 4.0 μg/kg/day, and 40 μg/kg/day secretin on post natal day 25 through postnatal day 70 (45 days). Learning and memory was evaluated in a water M-maze. The evaluation consisted of 10 trials/day for each animal on 4 successive days to assess short-term memory. The goal was to escape from the maze via a platform located on the lighted arm of an M-shaped maze. After placement of the animal in the central arm of the M-shaped maze, the goal side was varied for each animal at each trial according to a predetermined computer generated sequence. The same animals were also tested 5 days after the initial testing to assess long-term memory. On that day each animal were allowed 10 trials in the maze and time to escape was measured. Significance was calculated versus the control group value for the same day of testing using a T-test.

[3] = system: rats (baseline acoustic startle); conditions: rat, in vivo, ip
Description: A total of 72 male Sprague-Dawley rats (Charles River, Portage, Mich.) weighing 350-450 g were used. Animals were maintained on a 12:12 hour light-dark cycle (lights on at 0700) with food and water continuously available. All rats were housed in group cages of four rats each in a temperature-controlled (24° C.) animal colony.
Animals were trained and tested in 8×15×15 cm Plexiglas® and wire-mesh cages. Each cage floor consisted of four 6.0 mm diameter stainless-steel bars spaced 18 mm apart. Each cage was suspended between compression springs within a steel frame and located within a custom-designed 90×70×70 cm ventilated sound-attenuating chamber. Background noise (60 dB wide-band) was provided by a General Radio Type 1390-B noise generator (Concord, Mass.) and delivered through high-frequency speakers (Radio Shack Supertweeter; Tandy, Fort Worth, Tex.) located 5 cm in front of each cage. Sound level measurements (sound pressure level) were made with a Bruel & Kjaer (Marlborough, Mass.) model 2235 sound-level meter (A scale; random input) with the microphone (Type 4176) located 7 cm from the center of the speaker (approximating the distance of the rat's ear from the speaker). […]

- ability to learn and remember a spatial associative memory task ([2]; rat, in vivo, iv): does not impair
- effect of higher doses on baseline startle [3]: tended to suppress baseline startle
Substance: secretin
- dose giving peak change in Fos protein expression (Fos protein expression; i.p. or i.v.): 40 µg/kg
- minimum dose to detect significant changes in brain gene expression (Fos protein) (Fos protein expression; i.v. or i.p.): 4 µg/kg
- minimum dose possessing anxiolytic properties in fear-potentiated startle paradigm ([1]; i.p.): 3 µg/kg
- effect on expression of fear-potentiated startle ([1]; i.p. 1-100 μg/kg immediately prior to testing): dose dependently impaired expression of fear-potentiated startle
- dose giving greatest impairment of fear-potentiated startle ([1]; i.p. immediately prior to testing): 10 µg/kg
- learning performance in water M-maze relative to controls ([2]; rats, 0.4 or 4.0 μg/kg/day i.v., after 4 training days, maintained after 5 day rest): improved in learning performance
- minimum dose that improves functional memory in M swim maze ([2]; rats, i.v.): 0.4 µg/kg
